Like-named read-outs stand apart in the source and are kept apart here.

This passage reports IC50 results from patent US8859580B2 (Boehringer Ingelheim International GmbH, priority 2007, dated 2014).

The target of this experiment is T1, 11β-HSD1 (Homo sapiens, UniProt P28845).
T1 construct: detecting cortisol generated from cortisterone by human liver microsomes; from tissue; host or cells: human liver microsomes
As to the kind of experiment: In vitro inhibition of 11β-HSD1, HTRF detection of cortisol generated from cortisone by human liver microsomes. The experiment is classed as biochemical. Particulars: 1 hour at 37° C., pH 6.0, NADPH 200 μM, cortisone 80 nM, inhibition relative to carbenoxolone signal. The gist of the method: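 Inhibition expressed against the carbenoxolone signal and fitted to IC50 curves. Readout: HTRF competition between microsomal cortisol and XL665-labelled cortisol for Eu-cryptate anti-cortisol antibody (typically 2 h), with emission ratio 665/615 calibrated to cortisol concentration.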
(In TR-FRET formats the signal depends on donor and acceptor labels being close together.)

T1 sequence (P28845 whole entry): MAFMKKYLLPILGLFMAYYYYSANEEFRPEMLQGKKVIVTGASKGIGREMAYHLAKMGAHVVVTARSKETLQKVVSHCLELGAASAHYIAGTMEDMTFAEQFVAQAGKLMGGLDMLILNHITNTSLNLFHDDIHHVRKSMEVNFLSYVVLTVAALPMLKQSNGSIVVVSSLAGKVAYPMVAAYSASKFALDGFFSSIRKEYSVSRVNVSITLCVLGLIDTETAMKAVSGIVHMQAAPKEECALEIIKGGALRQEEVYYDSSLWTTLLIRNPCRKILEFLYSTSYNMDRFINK

A word on the IC50: it is the concentration that inhibits the measured activity by half. `Cn1cnc2ccc(C(=O)N3CC[C@@]4(C)c5cccc(O)c5C[C@@H]3C4(C)C)cc21` [Example 81, [(2R,6S)-10-Hydroxy-6,11,11-trimethyl-1,2,5,6-tetrahydro-4H-2,6-methano-benzo[d]azocin-3-yl]-(3-methyl-3H-benzoimidazol-5-yl)-methanone] came in with an IC50 (11β-HSD IC50 (nM)) of 463 nM.

For the setting “11β-HSD IC50 (nM)”, `C[C@@H]1[C@H]2Cc3ccc(C#N)cc3[C@]1(C)CCN2C(=O)c1ccc2nc[nH]c2c1` [Example 84, (2R,6R,11S)-3-(3H-Benzoimidazole-5-carbonyl)-6,11-dimethyl-1,2,3,4,5,6-hexahydro-2,6-methano-benzo[d]azocine-8-carbonitrile] registered an IC50 of 139 nM.

Regarding `CCCC12CCN(C(=O)c3ccc4nc[nH]c4c3)C(Cc3ccc(O)cc31)C2` (stereo not drawn) [Example 88, (3H-Benzoimidazol-5-yl)-(8-hydroxy-6-propyl-1,2,5,6-tetrahydro-4H-2,6-methano-benzo[d]azocin-3-yl)-methanone], for the setting “11β-HSD IC50 (nM)”, half-maximal inhibition (IC50) was put at 171 nM.

In the case of `CCC12CCN(C(=O)c3ccc4nc[nH]c4c3)C(Cc3ccc(O)cc31)C2(C)C` (stereo not drawn) [Example 89, (3H-Benzoimidazol-5-yl)-(6-ethyl-8-hydroxy-11,11-dimethyl-1,2,5,6-tetrahydro-4H-2,6-methano-benzo[d]azocin-3-yl)-methanone], under “11β-HSD IC50 (nM)”, the IC50 is 62 nM.

Turning to `CCC12CCN(C(=O)c3ccc4nc[nH]c4c3)C(Cc3ccc(O)cc31)C2` (stereo not drawn) [Example 90, (3H-Benzoimidazol-5-yl)-(6-ethyl-8-hydroxy-1,2,5,6-tetrahydro-4H-2,6-methano-benzo[d]azocin-3-yl)-methanone], the midpoint of inhibition (11β-HSD IC50 (nM)), the IC50, lay at 468 nM.

Under “11β-HSD IC50 (nM)”, `CCOC(=O)c1ccc2c(c1)[C@]1(C)CCN(C(=O)c3ccc4nc[nH]c4c3)[C@H](C2)[C@H]1C` [Example 91, (2R,6R,11S)-3-(3H-Benzoimidazole-5-carbonyl)-6,11-dimethyl-1,2,3,4,5,6-hexahydro-2,6-methano-benzo[d]azocine-8-carboxylic acid ethyl ester] showed an IC50 of 711 nM.

`CC12CCN(C(=O)c3ccc4ncsc4c3)C(Cc3ccc(O)cc31)C2` (stereo not drawn) [Example 92, benzothiazol-6-yl-(8-hydroxy-6-methyl-1,2,5,6-tetrahydro-4H-2,6-methano-benzo[d]azocin-3-yl)-methanone] returned an IC50 (11β-HSD IC50 (nM)) of 1110 nM.

Molecule `CC1(C)[C@H]2Cc3c(C#N)cccc3[C@]1(C)CCN2C(=O)c1ccc2nc[nH]c2c1` [Example 93, (2R,6S)-3-(3H-Benzoimidazole-5-carbonyl)-6,11,11-trimethyl-1,2,3,4,5,6-hexahydro-2,6-methano-benzo[d]azocine-10-carbonitrile] displayed an IC50 (11β-HSD IC50 (nM)) of 2060 nM.

As for `COC(=O)C12CCN(C(=O)c3ccc4ncsc4c3)C(Cc3ccc(O)cc31)C2` (stereo not drawn) [Example 94, 3-(Benzothiazole-6-carbonyl)-8-hydroxy-2,3,4,5-tetrahydro-1H-2,6-methano-benzo[d]azocine-6-carboxylic acid methyl ester], under “11β-HSD IC50 (nM)”, half-maximal inhibition (IC50) required 6720 nM.

In turn, `CCOC(=O)c1cccc2c1C[C@H]1N(C(=O)c3ccc4nc[nH]c4c3)CC[C@]2(C)C1(C)C` [Example 95, (2R,6S)-3-(1H-Benzoimidazole-5-carbonyl)-6,11,11-trimethyl-1,2,3,4,5,6-hexahydro-2,6-methano-benzo[d]azocine-10-carboxylic acid ethyl ester] yielded an IC50 (11β-HSD IC50 (nM)) of 3840 nM.

Regarding `CC12CCN(C(=O)c3ccc4nc[nH]c4c3)C(Cc3cc(C#N)ccc31)C2(C)C` (stereo not drawn) [Example 96, 3-(1H-Benzoimidazole-5-carbonyl)-6,11,11-trimethyl-1,2,3,4,5,6-hexahydro-2,6-methano-benzo[d]azocine-9-carbonitrile], 95 nM corresponded to half-maximal inhibition (11β-HSD IC50 (nM)) (IC50).

Under “11β-HSD IC50 (nM)”, `CCOC(=O)c1ccc2c(c1)CC1N(C(=O)c3ccc4nc[nH]c4c3)CCC2(C)C1(C)C` (stereo not drawn) [Example 97, 3-(1H-Benzoimidazole-5-carbonyl)-6,11,11-trimethyl-1,2,3,4,5,6-hexahydro-2,6-methano-benzo[d]azocine-9-carboxylic acid ethyl ester] returned an IC50 of 1130 nM.

Consider `CC12CCN(C(=O)c3ccc4nc[nH]c4c3)C(CCc3ccccc31)C2` (stereo not drawn) [Example 98, (3H-Benzoimidazol-5-yl)-(1-methyl-11-aza-tricyclo[8.3.1.0*2,7*]tetradeca-2,4,6-trien-11-yl)-methanone], for which the IC50 (read-out: 11β-HSD IC50) came to 125 nM.

Turning to `COc1ccc2c(c1)C1CCN(C(=O)c3ccc4nc[nH]c4c3)C2C1` (stereo not drawn) [Example 99, (3H-Benzoimidazol-5-yl)-(4-methoxy-9-aza-tricyclo[6.3.1.0*2,7*]dodeca-2,4,6-trien-9-yl)-methanone], the IC50 (read-out: 11β-HSD IC50) was found to be 285 nM.

On to `O=C(c1ccc2nc[nH]c2c1)N1CCC2CC1c1ccc(O)cc12` (stereo not drawn) [Example 100, (3H-Benzoimidazol-5-yl)-(4-hydroxy-9-aza-tricyclo[6.3.1.0*2,7*]dodeca-2,4,6-trien-9-yl)-methanone], for which the IC50 (read-out: 11β-HSD IC50) worked out at 564 nM.

Take `CC1(C)[C@H]2Cc3cc(-c4ccccc4)ccc3[C@]1(C)CCN2C(=O)c1ccc2nc[nH]c2c1` [Example 102, (3H-Benzoimidazol-5-yl)-[(2R,6S)-6,11,11-trimethyl-9-phenyl-1,2,5,6-tetrahydro-4H-2,6-methano-benzo[d]azocin-3-yl]-methanone]: for the setting “11β-HSD IC50 (nM)”, it took 1460 nM to reach half-maximal inhibition (IC50).

On to `COC12CCN(C(=O)c3ccc4nc[nH]c4c3)C(Cc3ccccc31)C2(C)C` (stereo not drawn) [Example 103, (3H-Benzoimidazol-5-yl)-(6-methoxy-11,11-dimethyl-1,2,5,6-tetrahydro-4H-2,6-methano-benzo[d]azocin-3-yl)-methanone], for which the IC50 (11β-HSD IC50 (nM)) amounted to 86 nM.

Molecule `COc1cccc2c1C[C@H]1N(C(=O)c3ccoc3C)CC[C@]2(C)C1(C)C` [Example 104, [(2R,6S)-10-Methoxy-6,11,11-trimethyl-l,2,5,6-tetrahydro-4H-2,6-methano-benzo[d]azocin-3-yl]-(2-methyl-furan-3-yl)-methanone] yielded an IC50 (11β-HSD IC50 (nM)) of 1390 nM.

Consider `CC1C2Cc3ccc(O)cc3C1(C)CCN2C(=O)c1ccccc1` (stereo not drawn) [Example 105, (8-Hydroxy-6,11-dimethyl-1,2,5,6-tetrahydro-4H-2,6-methano-benzo[d]azocin-3-yl)-phenyl-methanone], for which the IC50 (11β-HSD IC50 (nM)) came out at 1330 nM.

`Cc1ccccc1C(=O)N1CCC2(C)c3cc(O)ccc3CC1C2C` (stereo not drawn) [Example 106, (8-Hydroxy-6,11-dimethyl-1,2,5,6-tetrahydro-4H-2,6-methano-benzo[d]azocin-3-yl)-o-tolyl-methanone] registered an IC50 (11β-HSD IC50 (nM)) of 2960 nM.

Under “11β-HSD IC50 (nM)”, `COc1ccc2c(c1)[C@]1(C)CCN(C(=O)c3cccnc3)[C@H](C2)[C@@H]1C` [Example 107, [(2R,6R,11R)-8-Methoxy-6,11-dimethyl-1,2,5,6-tetrahydro-4H-2,6-methano-benzo[d]azocin-3-yl]-pyridin-3-yl-methanone] came in with an IC50 of 2550 nM.

For `COc1ccc2c(c1)[C@]1(C)CCN(C(=O)c3ccccc3[N+](=O)[O-])[C@H](C2)[C@@H]1C` [Example 108, [(2R,6R,11R)-8-Methoxy-6,11-dimethyl-1,2,5,6-tetrahydro-4H-2,6-methano-benzo[d]azocin-3-yl]-(2-nitro-phenyl)-methanone], the IC50 (11β-HSD IC50 (nM)) is 140 nM.

`COc1ccc2c(c1)[C@]1(C)CCN(C(=O)c3ccccc3C)[C@H](C2)[C@@H]1C` [Example 109, [(2R,6R,11R)-8-Methoxy-6,11-dimethyl-1,2,5,6-tetrahydro-4H-2,6-methano-benzo[d]azocin-3-yl]-o-tolyl-methanone] registered an IC50 (11β-HSD IC50 (nM)) of 1460 nM.

On to `COc1ccc2c(c1)[C@]1(C)CCN(C(=O)c3occc3C)[C@H](C2)[C@@H]1C` [Example 111, [(2R,6R,11R)-8-Methoxy-6,11-dimethyl-1,2,5,6-tetrahydro-4H-2,6-methano-benzo[d]azocin-3-yl]-(3-methyl-furan-2-yl)-methanone], for which, for the setting “11β-HSD IC50 (nM)”, the IC50 was determined as 1600 nM.

Take `Cc1ccoc1C(=O)N1CC[C@@]2(C)c3cc(O)ccc3C[C@@H]1[C@@H]2C` [Example 112, [(2R,6R,11R)-8-Hydroxy-6,11-dimethyl-1,2,5,6-tetrahydro-4H-2,6-methano-benzo[d]azocin-3-yl]-(3-methyl-furan-2-yl)-methanone]: the IC50 (11β-HSD IC50 (nM)) came out at 1230 nM.

Molecule `C[C@H]1[C@H]2Cc3ccc(O)cc3[C@]1(C)CCN2C(=O)c1ccco1` [Example 113, Furan-2-yl-[(2R,6R,11R)-8-hydroxy-6,11-dimethyl-1,2,5,6-tetrahydro-4H-2,6-methano-benzo[d]azocin-3-yl]-methanone] displayed an IC50 (11β-HSD IC50 (nM)) of 3630 nM.

Turning to `C[C@H]1[C@H]2Cc3ccc(O)cc3[C@]1(C)CCN2C(=O)c1ccccc1[N+](=O)[O-]` [Example 115, [(2R,6R,11R)-8-Hydroxy-6,11-dimethyl-1,2,5,6-tetrahydro-4H-2,6-methano-benzo[d]azocin-3-yl]-(2-nitro-phenyl)-methanone], the IC50 (11β-HSD IC50 (nM)) was 1590 nM.

For the setting “11β-HSD IC50 (nM)”, `CC1(C)[C@H]2Cc3c(O)cccc3[C@]1(C)CCN2C(=O)c1cc2ccccc2[nH]1` [Example 116, [(2R,6S)-10-Hydroxy-6,11,11-trimethyl-1,2,5,6-tetrahydro-4H-2,6-methano-benzo[d]azocin-3-yl]-(1H-indol-2-yl)-methanone] yielded an IC50 of 3850 nM.

The molecule `CC1(C)[C@H]2Cc3c(O)cccc3[C@]1(C)CCN2C(=O)c1ccc(CN)cc1` [Example 117, (4-Aminomethyl-phenyl)-[(2R,6S)-10-hydroxy-6,11,11-trimethyl-1,2,5,6-tetrahydro-4H-2,6-methano-benzo[d]azocin-3-yl]-methanone] came in with an IC50 (11β-HSD IC50 (nM)) of 1420 nM.

In turn, `CC1(C)[C@H]2Cc3c(O)cccc3[C@]1(C)CCN2C(=O)c1c[nH]c2ccccc12` [Example 118, [(2R,6S)-10-Hydroxy-6,11,11-trimethyl-1,2,5,6-tetrahydro-4H-2,6-methano-benzo[d]azocin-3-yl]-(1H-indol-3-yl)-methanone] came in with an IC50 (11β-HSD IC50 (nM)) of 72 nM.
